Reference: patent EP0863769B1 (priority 1996, dated 1998)
pKd: −log10 of the molar value.

Target: A/England/12/64
Type: binding, Influenza Viren
Conditions: read-out: Affinität der Bindung an Virus, Kaff

Substance: Poly-N-(2-Hydroxyethyl)-acrylamid mit 20% mol. 6SLN [6SLN-PAA]
- pKd: 7.00
